In ChEMBL document CHEMBL1201862, “PubChem BioAssay data set” (2004):
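A five-concentration, 48-hour dose response in 96-well plates underlies each endpoint, interpolated linearly between surrounding concentrations. GI50: concentration for 50% inhibition of growth.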 Activity calls are given as the source filed them. Rule as the data show it: active = GI50 up to about 1.1 µM and inactive = higher.

How the values were obtained:
Assay in all cases: DTP human tumour cell line panel, 48 h
[1] = tested on: 786-0
[2] = tested on: A498
[3] = tested on: A549
[4] = tested on: ACHN
[5] = tested on: BT-549
[6] = tested on: CAKI-1
[7] = tested on: CCRF-CEM
[8] = tested on: COLO 205
[9] = tested on: DU-145
[10] = tested on: EKVX
[11] = tested on: HCC 2998
[12] = tested on: HCT-116
[13] = tested on: HCT-15
[14] = tested on: HL-60
[15] = tested on: HOP-62
[16] = tested on: HOP-92
[17] = tested on: HT-29
[18] = tested on: Hs-578T
[19] = tested on: IGROV-1
[20] = tested on: K562
[21] = tested on: KM12
[22] = tested on: LOX IMVI
[23] = tested on: M14
[24] = tested on: MCF7
[25] = tested on: MDA-MB-231
[26] = tested on: MDA-MB-435
[27] = tested on: MDA-N
[28] = tested on: MOLT-4
[29] = tested on: Malme-3M
[30] = tested on: NCI-H226
[31] = tested on: NCI-H23
[32] = tested on: NCI-H460
[33] = tested on: NCI-H522
[34] = tested on: NCI/ADR-RES
[35] = tested on: OVCAR-3
[36] = tested on: OVCAR-4
[37] = tested on: OVCAR-5
[38] = tested on: OVCAR-8
[39] = tested on: PC-3
[40] = tested on: RPMI-8226
[41] = tested on: RXF 393
[42] = tested on: SF-268
[43] = tested on: SF-295
[44] = tested on: SF-539
[45] = tested on: SK-MEL-28
[46] = tested on: SK-MEL-2
[47] = tested on: SK-MEL-5
[48] = tested on: SK-OV-3
[49] = tested on: SN12C
[50] = tested on: SNB-19
[51] = tested on: SNB-75
[52] = tested on: SR
[53] = tested on: SW-620
[54] = tested on: T47D
[55] = tested on: TK-10
[56] = tested on: U-251
[57] = tested on: UACC-257
[58] = tested on: UACC-62
[59] = tested on: UO-31

Measured: GI50

CCN(CC)/[N+]([O-])=N/OCOC
> 100 µM: [13]
inactive: [1] > 100 µM | [2] > 100 µM | [3] > 100 µM | [4] > 100 µM | [5] > 100 µM | [6] > 100 µM | [7] > 100 µM | [8] > 100 µM | [9] > 100 µM | [10] > 100 µM | [11] > 100 µM | [12] > 100 µM | [14] > 100 µM | [15] > 100 µM | [16] > 100 µM | [17] > 100 µM | [18] > 100 µM | [19] > 100 µM | [20] > 100 µM | [21] > 100 µM | [22] > 100 µM | [23] > 100 µM | [24] > 100 µM | [25] > 100 µM | [26] > 100 µM | [27] > 100 µM | [28] > 100 µM | [29] > 100 µM | [30] > 100 µM | [31] > 100 µM | [32] > 100 µM | [33] > 100 µM | [34] > 100 µM | [35] > 100 µM | [36] > 100 µM | [37] > 100 µM | [38] > 100 µM | [39] > 100 µM | [40] > 100 µM | [41] > 100 µM | [42] > 100 µM | [43] > 100 µM | [44] > 100 µM | [45] > 100 µM | [46] > 100 µM | [47] > 100 µM | [48] > 100 µM | [49] > 100 µM | [50] > 100 µM | [51] > 100 µM | [52] > 100 µM | [53] > 100 µM | [54] > 100 µM | [55] > 100 µM | [56] > 100 µM | [57] > 100 µM | [58] > 100 µM | [59] > 100 µM

CCCCC/C(=N\c1[nH]nnc1C(N)=O)OCC
inactive: [1] > 100 µM | [2] > 100 µM | [3] > 100 µM | [4] > 100 µM | [5] > 100 µM | [6] > 100 µM | [7] > 100 µM | [8] > 100 µM | [9] > 100 µM | [10] > 100 µM | [11] > 100 µM | [12] > 100 µM | [14] > 100 µM | [15] > 100 µM | [16] 26.2 µM | [17] > 100 µM | [18] > 100 µM | [19] > 100 µM | [20] > 100 µM | [21] > 100 µM | [22] > 100 µM | [23] > 100 µM | [24] > 100 µM | [25] > 100 µM | [26] > 100 µM | [27] > 100 µM | [28] > 100 µM | [29] > 100 µM | [30] > 100 µM | [31] > 100 µM | [32] > 100 µM | [33] > 100 µM | [34] > 100 µM | [35] > 100 µM | [36] > 100 µM | [37] > 100 µM | [38] > 100 µM | [39] > 100 µM | [40] > 100 µM | [41] > 100 µM | [42] > 100 µM | [43] > 100 µM | [44] > 100 µM | [45] > 100 µM | [46] > 100 µM | [47] > 100 µM | [48] > 100 µM | [49] > 100 µM | [50] > 100 µM | [51] > 100 µM | [52] > 100 µM | [53] > 100 µM | [54] > 100 µM | [55] > 100 µM | [56] > 100 µM | [57] > 100 µM | [58] > 100 µM | [59] > 100 µM
> 100 µM: [13]

CC(=O)O[C@H]1CC[C@@]2(C)C(=CC[C@H]3[C@@H]4C[C@H](N5CCCC5)[C@H](OC(C)=O)[C@@]4(C)CC[C@@H]32)C1
> 100 µM: [13]
inactive: [1] > 100 µM | [2] > 100 µM | [3] > 100 µM | [4] > 100 µM | [5] > 100 µM | [6] > 100 µM | [7] > 67.8 µM | [8] > 100 µM | [9] > 100 µM | [10] > 100 µM | [11] > 93.3 µM | [12] > 56.5 µM | [14] > 45.7 µM | [15] > 100 µM | [16] > 100 µM | [17] 21.7 µM | [18] > 100 µM | [19] > 100 µM | [20] 33.1 µM | [21] > 100 µM | [22] 49.2 µM | [23] 18.2 µM | [24] > 100 µM | [25] > 100 µM | [26] 32 µM | [27] > 51.1 µM | [28] > 81.5 µM | [29] 33.7 µM | [30] > 100 µM | [31] > 100 µM | [32] > 100 µM | [33] > 100 µM | [34] > 100 µM | [35] > 86.3 µM | [36] > 100 µM | [37] > 100 µM | [38] > 100 µM | [39] > 100 µM | [40] > 60.1 µM | [41] > 100 µM | [42] > 100 µM | [43] > 100 µM | [44] 29.3 µM | [45] 39.8 µM | [46] > 100 µM | [47] 23 µM | [48] > 100 µM | [49] > 100 µM | [50] > 100 µM | [51] > 100 µM | [52] > 100 µM | [53] > 100 µM | [54] > 100 µM | [55] > 100 µM | [56] > 100 µM | [57] 38 µM | [58] > 56.1 µM | [59] > 100 µM

c1ccc(-c2cc3[nH]c4ccccc4[nH]c-3cc(-c3ccccc3)nn2)cc1
87.7 µM: [13]
inactive: [1] 29.2 µM | [2] 22.8 µM | [3] 40.4 µM | [4] 24.9 µM | [5] > 100 µM | [6] 91.8 µM | [7] 49.3 µM | [8] > 100 µM | [9] 52.7 µM | [10] > 100 µM | [11] 40 µM | [12] 33.6 µM | [14] 20.6 µM | [15] 26.3 µM | [16] > 100 µM | [17] 50.9 µM | [18] 66.4 µM | [19] 32.1 µM | [20] > 100 µM | [21] 46.9 µM | [22] 72.3 µM | [23] > 100 µM | [24] 51.3 µM | [25] 80 µM | [26] 64.3 µM | [27] > 100 µM | [28] > 100 µM | [29] 62.4 µM | [30] 45.6 µM | [31] > 100 µM | [32] 30 µM | [33] 71 µM | [34] > 100 µM | [35] 22.7 µM | [36] 56.2 µM | [37] > 100 µM | [38] 54.2 µM | [39] 55.1 µM | [40] 88.1 µM | [41] 76.9 µM | [42] 53 µM | [43] 24.4 µM | [44] 39.6 µM | [45] > 100 µM | [46] > 100 µM | [47] 74.6 µM | [48] 17.7 µM | [49] > 100 µM | [50] 41.6 µM | [51] 30.4 µM | [52] 96.2 µM | [53] 81.7 µM | [54] > 100 µM | [55] 22.9 µM | [56] 55.6 µM | [57] > 100 µM | [58] > 100 µM | [59] 21.3 µM
